{
  "source": "patent US20070134261A1",
  "about": "“Effectors of innate immunity” (priority 2001, published 2007)",
  "key": {"[1]": {"system": "THP-1 cells (human monocytes)", "assay": "Induction of IL-8 in undifferentiated THP-1 cells", "type": "cell-based", "procedure": "The murine macrophage cell line RAW 264.7, THP-1 cells (human monocytes), a human epithelial cell line (A549), human bronchial epithelial cells (16HBEo14), and whole human blood were used. HBE cells were grown in MEM with Earle's. THP-1 cells were grown and maintained in RPMI 1640 medium. The RAW and A549 cell lines were maintained in DMEM supplemented with 10% fetal calf serum. […] DMEM was aspirated from cells grown overnight and replaced with fresh medium. After incubation of the cells with peptide, the release of chemokines into the culture supernatant was determined by ELISA (R&D Systems, Minneapolis, Minn.)."}, "[2]": {"system": "mouse macrophage RAW cell line", "assay": "Phosphorylation of MAP kinases (Western blot) in RAW cell line", "type": "cell-based", "procedure": "The cells were seeded at 2.5×10^5−5×10^5 cells/ml and left overnight. They were washed once in media, serum starved in the morning (serum free media—4 hrs). The media was removed and replaced with PBS, then sat at 37° C. for 15 minutes and then brought to room temp for 15 minutes. Peptide was added (concentrations 0.1 μg/ml−50 μg/ml) or H2O and incubated 10 min. The PBS was very quickly removed and replaced with ice-cold radioimmunoprecipitation (RIPA) buffer with inhibitors (NaF, B-glycerophosphate, MOL, Vanadate, PMSF, Leupeptin Aprotinin). The plates were shaken on ice for 10-15 min or until the cells were lysed and the lysates collected. The procedure for THP-1 cells was slightly different; more cells (2×10^6) were used. They were serum starved overnight, and to stop the reaction 1 ml of ice-cold PBS was added then they sat on ice 5-10 min, were spun down then resuspended in RIPA. Protein concentrations were determined using a protein assay (Pierce, Rockford, Ill.). Cell lysates (20 μg of protein) were separated by SDS-PAGE and transferred to nitrocellulose filters. […] The freshly harvested cells were consistently >99% viable as assessed by their ability to exclude trypan blue. […] Protein content was analyzed and approximately 30 μg of each sample was loaded in a 12% SDS-PAGE gel. […] Phosphorylation was detected with phosphorylation-specific antibodies."}},
  "data": [
    {"smiles": "CC[C@H](C)[C@H](N)C(=O)N[C@@H](CC(C)C)C(=O)N1CCC[C@H]1C(=O)N[C@@H](Cc1c[nH]c2ccccc12)C(=O)N[C@@H](CCCCN)C(=O)N[C@@H](Cc1c[nH]c2ccccc12)C(=O)N1CCC[C@H]1C(=O)N[C@@H](Cc1c[nH]c2ccccc12)C(=O)N[C@@H](Cc1c[nH]c2ccccc12)C(=O)N1CCC[C@H]1C(=O)N[C@@H](Cc1c[nH]c2ccccc12)C(=O)N[C@@H](CCCNC(=N)N)C(=O)N[C@@H](CCCNC(=N)N)C(N)=O", "note": "[SEQ ID NO: 2]", "values": [
      {"measurement": "induction of IL-8", "setting": "[1]", "result": "significantly induced IL-8"},
      {"measurement": "phosphorylation of p38 and ERK1/2", "setting": "[2]", "result": "dose dependent phosphorylation"}
    ]}
  ]
}
